Broadly, the mortality is the share of the test organisms that died. Broadly, the inhibition is the share of the control response that was lost under treatment.

What all share (assay type): in vivo
The subject of one series is Ctenocephalides felis. The series can be described thus: whole plant or invertebrate. The note with it: 50 ppm in bovine blood, oral via feeder, adults, following day, read-out: mortality rate.
The subject of another series is Plutella xylostella. The series can be described thus: whole plant or invertebrate. The following applies: 144 h, Chinese cabbage seedlings with laid eggs dipped about 30 seconds, 6 days after dip treatment, criteria of Test Example 1, read-out: insecticidal efficacy (corrected mortality rate).
The test system of the next series is Laodelphax striatellus. The series can be described thus: whole plant or invertebrate. The following applies: 192 h, rice seedlings dipped 30 seconds, 3rd-instar larvae, 8 days after inoculation, criteria of Test Example 1, read-out: insecticidal efficacy (corrected mortality rate).
In the next series the test system is Dirofilaria immitis. As to the kind of experiment: Larval motility assay on Dirofilaria immitis. The following applies: 72 h, L1 stage larvae, 3 days, relative to DMSO only, read-out: percent motility inhibition. Here is the method: Larval Motility Assay on Dirofilaria immitis
Five hundred L1 stage larvae of D. immitis were diluted in a predetermined conditioned medium and introduced into each well of a 96-well plate. DMSO diluted solutions of various compounds of the present invention were added at the final concentration of 50 ppm to the wells of the 96-well plate. The plate was allowed to stand for 3 days, and then larval motility was examined. The percent motility inhibition in the wells of each treatment was calculated relative to the wells of treatment with DMSO only.

The next series relates to Haemonchus contortus. The series can be described thus: Larval motility assay on Haemonchus contortus. The note with it: 96 h, L1 stage larvae, 4 days, relative to DMSO only, read-out: percent motility inhibition. On the procedure:
Larval Motility Assay on Haemonchus contortus
DMSO diluted solutions of various compounds of the present invention were added at the final concentration of 50 ppm to the wells of a 96-well plate containing a predetermined conditioned medium. Twenty L1 stage larvae of H. contortus were introduced into each well of the 96-well plate. The plate was allowed to stand for 4 days, and then larval motility was examined. The percent motility inhibition in the wells of each treatment was calculated relative to the wells of treatment with DMSO only.

A further series deals with Rhipicephalus sanguineus. As to the kind of experiment: Assay for transdermal parasiticidal activity against nymphs of Rhipicephalus sanguineus. The following applies: 100 ppm applied to inside of sample bottles, two days later. An excerpt: DMSO diluted solutions of various compounds of the present invention were individually diluted to the final concentration of 100 ppm with an acetone/triton mixture and applied to the inside of vented sample bottles. After overnight drying, ten nymphs of R. sanguineus were introduced into each bottle, and the mortality rate was examined two days later. Aberrant adults were regarded as the dead.

For the compound `CCS(=O)(=O)c1cc(-c2noc(C3(C)CC3)n2)cnc1-c1nc2cc(C(F)(F)F)cnc2n1C` [Compound 1-2], in the series with Ctenocephalides felis, the mortality at 50 ppm was ≥ 50%. Further, the mortality at 500 ppm with Plutella xylostella and in the series on Laodelphax striatellus was 100% throughout. Besides, the inhibition at 50 ppm in the series on Dirofilaria immitis and in the series with Haemonchus contortus was ≥ 50% in each case.
Consider `CCS(=O)(=O)c1cc(-c2noc(C3CC3C)n2)cnc1-c1nc2cc(C(F)(F)F)cnc2n1C` (stereo not drawn) [Compound 1-6, 3-(5-ethylsulfonyl-6-(3-methyl-6-trifluoromethyl-3H-imidazo[4,5-b]pyridin-2-yl)pyridin-3-yl)-5-(2-methylcyclopropyl)-1,2,4-oxadiazole], for which the mortality at 500 ppm in the series with Plutella xylostella and with Laodelphax striatellus was 100% each time. The inhibition at 50 ppm in the series with Dirofilaria immitis and in the series with Haemonchus contortus was ≥ 50% each time.
As for `CCS(=O)(=O)c1cc(-c2noc(C3(C(F)(F)F)CC3)n2)cnc1-c1nc2cc([S+]([O-])C(F)(F)F)ccc2n1C` (stereo not drawn) [Compound 1-8], the mortality at 500 ppm with Plutella xylostella and in the series on Laodelphax striatellus was 100% throughout.
Consider `CCS(=O)(=O)c1cc(-c2noc(C3(c4ccccc4)CC3)n2)cnc1-c1nc2cc(C(F)(F)F)cnc2n1C` [Compound 1-5], for which, in the series on Rhipicephalus sanguineus, the “parasiticidal activity (mortality rate)” value is “parasiticidal activity”. Further, the mortality at 500 ppm with Plutella xylostella and with Laodelphax striatellus was 100% throughout. Moreover, the inhibition at 50 ppm in the series with Dirofilaria immitis and in the series with Haemonchus contortus was ≥ 50% each time.
As to `CCS(=O)(=O)c1cc(-c2noc(C3(C(F)(F)F)CC3)n2)cnc1-c1nc2cc(C(F)(F)F)cnc2n1C` [Compound 1-4, 3-(5-ethylsulfonyl-6-(3-methyl-6-trifluoromethyl-3H-imidazo [4,5-b]pyridin-2-yl)pyridin-3-yl)-5-(1-trifluoromethylcyclopropyl)-1,2,4-oxadiazole], the mortality at 50 ppm with Ctenocephalides felis was ≥ 50%. The “parasiticidal activity (mortality rate)” value in the series on Rhipicephalus sanguineus is given as “parasiticidal activity”. Also, the mortality at 500 ppm with Plutella xylostella and in the series on Laodelphax striatellus was 100% throughout. Further, the inhibition at 50 ppm in the series on Dirofilaria immitis and with Haemonchus contortus was ≥ 50% each time.
Take `CCS(=O)(=O)c1cc(-c2noc(C3(C(F)(F)F)CC3)n2)cnc1-c1nc2cc(C(F)(F)F)ncc2n1C` [Compound 1-7]: the mortality at 50 ppm in the series with Ctenocephalides felis is ≥ 50%. The mortality at 500 ppm in the series with Plutella xylostella and in the series with Laodelphax striatellus was 100% throughout. The inhibition at 50 ppm with Dirofilaria immitis and in the series with Haemonchus contortus was ≥ 50% each time.

These data come from US12484581B2, “Agricultural or horticultural insecticide or animal ectoparasite or endoparasite control agent each comprising a condensed heterocyclic compound having a substituted cyclopropane-oxadiazole group or a salt thereof as active ingredient, and method for using the insecticide or the control agent” (NIHON NOHYAKU CO., LTD., priority 2019, dated 2025).
